# Assay results reported in US7378111B2, “Regulation of GSK-3α activity for the treatment or prevention of Alzheimer's disease” (The Trustees of the University of Pennsylvania, priority 2002, dated 2008).
# Numbered stars: 1 amine (or outer) side, 2 acyl side, 3 side chain; on linkers, the order of the positions; unused ones are H or OH. Square brackets hold non-standard residues; d marks the D form. Peptide text beside a SMILES is read from it. * marks the point of attachment. X1 = CC(N[*:1])C(=O)C(F)(F)C(=O)[*:2]; Boc = CC(C)(C)OC(=O)*
# What was measured:
# GSK-3α = experiment: siRNA knock-down, GSK-3α protein by western blot in CHO-APP695 cells; format: cell-based, Chinese hamster
# Description: (§1) CHO-APP695 cells were transfected with short interfering RNAs (siRNAs) directed against GSK-3α and GSK-3β as follows. RNA oligonucleotides were synthesized by Dharmacon, Inc. (Lafayette, Colo.) Sequences used were:
# (§2) The dsRNA was produced using conditions described in Elbashir et al., 2001, supra. The siRNA was transfected into the CHO-APP695 cells plated in 6-well dishes using GenePORTER transfection reagent. The siRNA (25 nM) was co-transfected with 2 μg plasmid DNA. The siRNA against pGL3-luciferase (Pp-Luc) represents control transfection. […] Following transfection, the cells were cultured and harvested 48 hours later. GSK-3α and GSK-3β protein levels were examined using an antibody that recognized both GSK-3 isoforms (Calbiochem), and western blotted as above.
# [1] = system: Aβ40 and Aβ42 production in CHO-APP695 cells; experiment: Aβ levels secreted from siRNA transfected CHO-APP695 cells; format: cell-based, Chinese hamster; conditions: siRNA 25 nM, 48 hours
# Description: as §2
# As graphically presented in FIG. 3b, Aβ levels (Aβ40 shown in light bars; […] shown in dark bars) secreted from siRNA and transfected cells in a representative experiment, were assessed as in FIG. 1. Error bars represent standard deviation. The experiment was repeated six times with similar results. As a result, the selective reduction of GSK-3 a protein decreased Aβ40 and Aβ42 levels by 45% and 43%, respectively (FIG. 3b). Asterisks indicate a significant difference from control, as determined by one-way ANOVA (p<0.05).
# [2] = system: Aβ40 and Aβ42 production in CHO-APP695 cells; experiment: Secreted Aβ40 and Aβ42 from CHO-APP695 cells, sandwich ELISA normalized to intracellular full-length APP; format: cell-based, Chinese hamster
# Description: To investigate the role of GSK-3 in the production of peptides Aβ40 and Aβ42, Chinese hamster ovary (CHO) cells stably expressing APP (CHO-APP695) were treated with lithium chloride (LiCl), which is a direct inhibitor of GSK-3α and β (Phiel et al., 2001). CHO695 cells (available commercially, e.g., American Type Culture Collection (ATCC), Manassas, Va.) were maintained in culture in MEMα+5% fetal bovine serum (FBS) (e.g., BioWhittaker, Walkersville, Md.) with added penicillin/streptomycin and glutamine. Stocks of lithium chloride were prepared in sterile water. To quantify the Aβ40 and Aβ42 secretion following treatment with LiCl, the CHO-APP695 cells were plated in 6-well dishes at a density of 5×10^5 cells per well. LiCl was added to the cells in fresh medium, and media and cells were collected 24 hours later. Aβ determinations from the media were made by sandwich ELISA in femtomoles using the method of Suzuki et al., Science 264:1336-1340 (1994).
# For comparison purposes, the results were normalized to levels of intracellular full-length APP. APP levels were quantified by SDS-PAGE followed by western immunoblotting with the amino-terminal APP antibody Karen (Turner et al., J. Biol. Chem. 271:8966-8970 (1996)), and visualized using ^125I-labelled secondary antibodies by Phosphorlmager analysis and ImageQuant software (Amersham Biosciences Corp, Piscataway, N.J.).
# Stocks of kenpaullone (Calbiochem, La Jolla, Calif.) were prepared in DMSO. Secreted labeled Aβ secreted from CHO-APP695 cells was obtained as described in the preceding examples. Drugs were added to fresh medium, and medium and cells were collected, as described above, 24 hours later. Immunoprecipitates from the medium were SDS-PAGE separated and Phosphorlmager visualized.
# Stocks of roscovitine (Calbiochem) were prepared in DMSO.
# [3] = system: γ-secretase cleavage of APP in CHO-APP695 cells; experiment: 35S-methionine labeling, immunoprecipitation and SDS-PAGE of secreted Aβ, APP holoprotein and APP C-terminal fragments; format: cell-based, Chinese hamster; conditions: 5 mM LiCl or 100 μM DFK-167 for 24 hours
# Description: To visualize the APP fragments, CHO695 cells plated on 6-well dishes were methionine-deprived for 30 minutes by incubation in methionine-free DMEM (Life Technologies, Inc., Grand Island, N.Y.) before adding 500 μCi ^35S-methionine (Perkin Elmer Life Sciences, Inc., Boston Mass.) per ml of DMEM with 5% dialyzed FBS (Invitrogen) and mg/ml L-proline for 2.5 hours. Medium was collected and cells (2 wells/sample) were rinsed twice with PBS (phosphate buffered saline), then scraped into RIPA buffer (a standard immunoprecipitation buffer, see, Harlow and Lane (eds.), In Antibodies: a laboratory manual, Cold Spring Harbor Laboratory Press, NY (1988)). Lysates were sonicated and centrifuged at 100,000×g for 20 minutes. Using protein A/G agarose beads (Santa Cruz Biotechnologies, Santa Cruz, Calif.), media was immunoprecipitated with the antibody BAN-50 (Suzuki et al., 1994) that recognizes Aβ amino acids 1-10, and cell lysates were immunoprecipitated with antibody 2493 (Lee et al., J. Biol. Chem. 278:[…] (2003)), which is a rabbit polyclonal antibody that recognizes the C-terminus of APP. Proteins were resolved by electrophoresis on 10/16% step gradient Tris-tricine polyacrylamide gels. Gels were fixed in 50% methanol+5% glycerol, dried, and exposed to a Phosphorlmager screen. […]
# GSK-3 [4] = experiment: β-catenin protein accumulation by western blot in CHO-APP695 cells; format: cell-based, Chinese hamster; conditions: kenpaullone 0.5, 2.0, 5.0 μM; LiCl 0.5, 2.0, 5.0 mM; FIG. 2b
# Description: This was confirmed by western blot, in CHO-APP695 cells treated with kenpaullone (tested at concentrations of 0.5 μM, 2.0 μM and 5.0 μM, respectively) or lithium (0.5 mM, 2.0 mM and 5.0 mM LiCl) as shown in FIG. 2b. Roscovitine was added as a control (tested at concentrations of 0.5 μM, 2.0 μM and 5.0 μM, respectively) in FIG. 2b, as had been in the study summarized in FIG. 2a. A western blot for actin is was used as a loading control (see FIG. 2b).
# GSK-3 [5] = experiment: β-catenin/Tcf-dependent luciferase reporter (OT-Luc / Lef-OT) in CHO-APP695 cells; format: cell-based, Chinese hamster; parameters: dose or concentration left out as unconfirmed; conditions: FIG. 2c
# Description: CHO-APP695 cells were transfected with a β-catenin-responsive reporter construct, OT-luciferase (OT-Luc) (shown in FIG. 2c as light bars), or a mutated reporter, OF-luciferase (OF-Luc) (shown in FIG. 2c as dark bars). OT-luciferase was provided by K. Kinzler and B Vogelstein.
# After transfection, cells were treated with lithium (at concentrations of 0.5 mM, 2.0 mM and 5 mM LiCl, respectively), kenpaullone (at concentrations of […]) or roscovitine (at concentrations of […]) for 24 hours. Cells were harvested and luciferase assays performed.
# [6] = system: cyclin-dependent kinases (cdks); conditions: in vitro; cited from earlier work
# GSK-3β = experiment: siRNA knock-down, GSK-3β protein by western blot in CHO-APP695 cells; format: cell-based, Chinese hamster; conditions: siRNA 25 nM, harvested 48 hours after transfection
# Description: as §1, §2
compound,measurement,setting,value
"GSK-3α siRNA: dsRNA of SEQ ID NO:5 (sense) and SEQ ID NO:6 (antisense) directed against GSK-3α (sense UUCUACUCCAGUGGUGAGA; antisense UCUCACCACUGGAGUAGAA; listed as RNA, chemistry not fully specified)",GSK-3α protein level,"GSK-3α; siRNA 25 nM, harvested 48 hours after transfection",selectively reduces
same,decrease of secreted Aβ40 level,[1]; FIG. 3b,45%
same,decrease of secreted Aβ42 level,[1]; FIG. 3b,43%
"[Cl-].[Na+] [NaCl, sodium chloride]",effect on APP processing,"[2]; 24 hours, FIG. 1a",no effect
CCC(C)C(NC(=O)C(NC(=O)OC(C)(C)C)C(C)C)C(=O)NC(C)C(=O)C(F)(F)C(=O)NC(C(=O)NC(C(=O)OC)C(C)CC)C(C)C (stereo not drawn) [DFK-167] (Boc-VI[X1]VI-OMe; configuration not given here),steady-state levels of secreted Aβ peptides,[3]; FIG. 1b,dramatically reduce
same,accumulation of APP C-terminal fragments (CTFs),[3]; FIG. 1c,accumulation of APP CTFs
O=C1Cc2c([nH]c3ccc(Br)cc23)-c2ccccc2N1 [kenpaullone],reduction of Aβ40 and Aβ42 secretion,"[2]; 2.0 μM, 24 hours",50%
same,reduction of Aβ40 and Aβ42 secretion,"[2]; 5.0 μM, 24 hours",greater than 90%
same,accumulation of β-catenin protein (GSK-3 inhibition in cells),GSK-3 [4],accumulation of β-catenin protein
same,activation of β-catenin/Tcf-dependent reporter Lef-OT,GSK-3 [5],activation
same,concentration needed for cdk inhibition relative to GSK-3 inhibition,[6],at least 20 fold
"control siRNA: siRNA against pGL3-luciferase (Pp-Luc), SEQ ID NO:1 and 2, control transfection (chain 1 CUUACGCUGAGUACUUCGA; chain 2 UCGAAGUACUCAGCGUAAG; listed as RNA, chemistry not fully specified)",GSK-3 expression,"GSK-3α; control siRNA, both GSK-3 isoforms, FIG. 3a",no effect
"GSK-3β directed siRNA: dsRNA of SEQ ID NO:3 (sense) and SEQ ID NO:4 (antisense) directed against GSK-3β (sense AUCUUUGGAGCCACUGAUU; antisense AAUCAGUGGCUCCAAAGAU; listed as RNA, chemistry not fully specified)",GSK-3β protein level,GSK-3β,selectively reduces
same,levels of secreted Aβ40 and Aβ42,[1],modest increase
CC[C@H](CO)Nc1nc(NCc2ccccc2)c2ncn(C(C)C)c2n1 [roscovitine],effect on Aβ40 and Aβ42,"[2]; 2.0 μM and 5.0 μM, FIG. 2a",no effect
